Data: patent US9763956B2, “Diagnostic and treatment methods in subjects having or at risk of developing resistance to cancer therapy” (The Broad Institute, Inc., priority 2012, dated 2017)
“Also recorded” adds a separate entry of the source.

What was measured:
[1] = tested on: Notch inhibitor resistant (persister) T-ALL cell lines; assay: Cell viability / proliferation (Celltiterglo luminescence); type: cell-based, human; details: compared to naïve cells, viability read on day 6
Protocol: (§1) Notch inhibitor sensitive and resistant T-ALL cell lines were plated in 96 well plates and treated with vehicle, 1 uM GSI and/or increasing concentrations of the bet inhibitor JQ1. Cell viability was determined by measuring luminescence after Celltiterglo® (Promega) addition on day 6. Apoptosis was measured using Caspaseglo® (Promega) on day 4.

[2] = Gastrointestinal toxicity, Periodic acid-Schiff (PAS) stain in Balb/c mice; type: in vivo, mouse; details: JQ1 given in addition to DBZ
Protocol: Balb/c mice were treated with DBZ+JQ1, DBZ, or vehicle alone. Hyperproliferation of globlet cells was measured by Periodic acid-Schiff (PAS) stain.

[3] = tested on: MYC in naïve T-ALL cells; assay: MYC expression, Western blot (FIG. 12B, 17A); type: cell-based, human
Protocol: (§2) FIG. 17A is two photographs of western blots show MYC expression in naïve and persister cells after 3 day treatment with 2 μM AKT inhibitor, MK-2206, or 10 nM mTOR inhibitor, Rapamycin. FIG. 17B depicts graphs showing BRD4 binding at the MYC and BCL2 promoters.

[4] = tested on: Bcl-2 in naïve leukemia cells; assay: Bcl-2 protein level, Western blot (FIG. 9B); type: cell-based, human; details: naïve population
[5] = tested on: MYC in persister cells; assay: MYC expression, Western blot (FIG. 17A); type: cell-based, human
Protocol: as §2

[6] = tested on: Notch inhibitor sensitive (naïve) T-ALL cell lines; assay: Cell viability / proliferation (Celltiterglo luminescence); type: cell-based, human; details: JQ1 concentrations that arrest persisters
Protocol: as §1

[7] = tested on: Notch inhibitor resistant T-ALL cell lines; assay: Apoptosis (Caspaseglo); type: cell-based, human; details: resistant leukemia cells compared to naïve; day 4
Protocol: as §1

[8] = tested on: Bcl-2 in GSI resistant leukemia cells; assay: Bcl-2 protein level, Western blot (FIG. 9B); type: cell-based, human; details: GSI resistant (persister) cells
[9] = tested on: Notch inhibitor sensitive T-ALL cell lines; assay: Long-term culture of Notch inhibitor sensitive T-ALL cell lines with GSI (resistance modeling); type: cell-based, human
Protocol: Notch inhibitor sensitive T-ALL cell lines were cultured in the presence of 1 μM GSI in vitro. Cells were plated at 0.25×10^6/ml in 20 mL and split every 3-4 days. Cell viability, cell size and cell cycle were measured every 3-4 days. […] GSI-treated cells stopped proliferating between day 14 to 30 of culture, but eventually started proliferating again despite the presence of GSI with subsequent growth rates being equal or similar to untreated cells.

SMILES: Cc1sc2c(c1C)C(c1ccc(Cl)cc1)=N[C@@H](CC(=O)OC(C)(C)C)c1nnc(C)n1-2 (single isomer, unassigned) [JQ1 enantiomer]
- proliferation / survival of resistant (persister) leukemia cells [1]: no effect

SMILES: CN(C)CC[C@H](CSc1ccccc1)Nc1ccc(S(=O)(=O)NC(=O)c2ccc(N3CCN(Cc4ccccc4-c4ccc(Cl)cc4)CC3)cc2)cc1[N+](=O)[O-] [ABT-737]
- proliferation / survival of resistant (persister) leukemia cells [1]: effectively killed persister cells

SMILES: Cc1sc2c(c1C)C(c1ccc(Cl)cc1)=N[C@@H](CC(=O)OC(C)(C)C)c1nnc(C)n1-2 [JQ1]
- intestinal villi architecture (PAS stain) [2]: largely ameliorated villi architecture
- MYC expression [3]: did not alter MYC
- Bcl-2 expression [4]: little effect
- MYC expression [5]: significantly reduced MYC expression
- proliferation of naïve T-ALL cells [6]: well tolerated
- proliferation / survival of resistant (persister) leukemia cells [1]: decrease in proliferation; also recorded: proliferation arrest
- apoptosis [7]: increase in apoptosis
- Bcl-2 protein level / expression [8]: inhibited; also recorded: decreased level of Bcl-2 protein; also recorded: significantly reduced Bcl-2 expression

SMILES: C[C@H](NC(=O)Cc1cc(F)cc(F)c1)C(=O)N[C@H]1N=C(c2ccccc2)c2ccccc2N(C)C1=O [compound E]
- GSI concentration tolerated by persister cells relative to the IC50 [9]: more than 50 fold
